# Patent US8394362B2, “Gem difluorinated C-glycopeptides, their preparation and their use for the preservation of biological materials and/or in cryosugery” (priority 2004, dated 2013)
# Like-named read-outs stand apart in the source and are kept apart here.
# What was measured:
# [1] = test system: CCD-27Sk fetal fibroblast skin cells
# From the text: […] Materials
# [2] = test system: H9c2(2-1) cells; assay type: cell-based, rat
# [3] = test system: blood platelets; assay: Preservation of blood platelets: platelet clustering over 21 days; assay type: cell-based
# Protocol: The purpose is to test product 15 on the preservation of blood platelets to improve current protocols which only allow their preservation for 5 days. The test was conducted at four different temperatures 22° C., 15° C., 4° C. and finally 0° C. Platelet follow-up lasted 21 days to examine platelet clustering. Clustering is one of the first and most definitive indicators of platelet degradation. During their degradation, the platelets become active, lose their morphology, become fibrous, form clusters and finally degenerate. A platelet count is made but the result is rather more based on the extent of clustering.
# [4] = test system: HEK 293 cells; assay: Preservation of HEK 293 kidney cells at low temperatures (Trypan blue cell count); assay type: cell-based
# Protocol: The cells were then diluted to 75,000 cells/mL. Subsequently they were distributed over 6 plates with six 3 mL-wells per plate. This concentration is a good compromise between a concentration sufficiently low to prevent cell death by autocytotoxicity and sufficiently high to permit cell sampling and counting without any pre-concentration likely to reduce their survival. Each plate had two control wells not containing product 15, two wells with concentrations of product 15 adjusted to 0.01 mg/mL, and two others with 0.1 mg/mL. Each plate was then incubated at the following temperatures: 4° C., 2° C., 0° C., −2° C., −4° C., and −20° C. Each well was subsequently sampled at the following incubation times: 2, 8, and 22 hours.
# [5] = test system: erythrocytes; assay: Preservation of erythrocytes: haemolysis at different temperatures; assay type: cell-based, human
# Protocol: The death of erythrocytes can be ascertained by rupture of the plasma membrane. This phenomenon is called haemolysis. Detection of haemolysis is the chief tool used in this experiment to determine the effect of product 15 at different temperatures on the preservation of erythrocytes. Blood sampling→Aliquots→Addition of AAGP (compound 15)→Various temperatures→Observation of haemolysis Product 15 was tested at concentrations of 0 mg/mL, 0.1 mg/mL, 1.0 mg/mL at temperatures of 3, 0, −3, −5, −10, −15, −23, −78° C. From a sample of human blood in a borosilicate heparinized tube, microtubes of 275 μL were filled to full capacity. One third of the microtubes were completed with 2.75 μL of product 15 (10 mg/mL in H2O), and one third of the microtubes were completed with 27.5 μL of product 15 (10 mg/mL in H2O). The blood was divided among the tubes to full capacity to prevent air contact as much as possible. […] The microtubes were frozen on a microtube support and the experiment was conducted using a slow-freeze apparatus at −78° C., whilst thawing was always conducted at room temperature on the microtube rack. After thawing, the microtubes were delicately homogenized by inverting a few times and a sample of erythrocytes was taken. […] Co is the initial Ery count • Cexp is the experimental Ery count Materials
# [6] = test system: H9c2(2-1) cells; assay type: cell-based, rat; remark: listed apart in the source
# Protocol: The test was conducted on rat heart myoblasts to consider application of these compounds for the preservation of organs such as the heart for subsequent transplant.
# Another test was conducted on myoblasts at temperatures of 3° C. and −3° C. The purpose of the experiment this time was to increase the concentrations of glycoproteins 15 and 30 equimolar fashion (the molecular weight of the dimer being 2× greater than that of the monomer). The increase in concentration was 2.5 mg/mL for monomer 15 and 5 mg/mL for dimer 30. The temperatures were chosen over a range frequently used for the preservation of cells and tissues. The idea being subsequently to continue this experiment directly on tissues.
# [7] = test system: embryonic fibroblasts; settings: 15 mg/mL; 1 mM H2O2; 37° C.; after 10 hours; serum-free medium with 0.5 mM EDTA
# [8] = test system: adult primary skin fibroblasts; assay: Protection of adult primary skin fibroblasts in culture medium; assay type: cell-based; settings: 15 mg/mL, after six days, culture media
# Protocol: This test was extended to adult primary fibroblasts.
# For adult fibroblasts, a culture medium (rich in factors) is used,
# The concentration of product 15 is 15 mg/mL.
# [9] = 0.1 mg/mL, 40 min, −78° C. with slow cooling
# [10] = 0.1 mg/mL, 2 h, 3, 0, −3, −5 and −10° C.
# [11] = 0.1 mg/mL, 4 h, 3, 0, −3, −5 and −10° C.
# [12] = 0.1 mg/mL, 9 h, 3, 0, −3, −5 and −10° C.
# [13] = 0.1 mg/mL, 24 h, 3, 0, −3, −5 and −10° C.
# [14] = 1.0 mg/mL, 40 min, −78° C. with slow cooling
# [15] = 1.0 mg/mL, 2 h, 3, 0, −3, −5 and −10° C.
# [16] = 1.0 mg/mL, 4 h, 3, 0, −3, −5 and −10° C.
# [17] = 1.0 mg/mL, 9 h, 3, 0, −3, −5 and −10° C.
# [18] = 1.0 mg/mL, 24 h, 3, 0, −3, −5 and −10° C.
smiles,measurement,setting,value
C[C@H](NC(=O)[C@H](C)NC(=O)[C@@H](N)CCCCNC(=O)C(F)(F)C1(O)O[C@H](CO)[C@H](O)[C@H](O)[C@H]1O)C(=O)O (stereo partly drawn) [product 15],"preservation of skin fibroblasts, overall","[1]; 5 mg/mL (8.6 mM), 22, 3, −3, −20° C.",better preservation in the presence of product 15 at all temperatures except at −20 °C
same,survival rates over time compared with control,"[1]; 5 mg/mL, 22° C., 3° C., −3° C. (FIGS. 48 to 50)",much better survival rates
same,cell preservation with or without product,"[1]; 5 mg/mL, 8 hours (FIG. 44), entire temperature range",no difference is found
same,cell survival rate compared with control,"[1]; 5 mg/mL, 20 hours (FIG. 46)",better cell survival rate with monomer 15 than with the control
same,survival rate,"[1]; 5 mg/mL, 20 hours (FIG. 46), −3° C.",50%
same,cell preservation compared with control,"[1]; 5 mg/mL, after 12 hours, 22° C. and −3° C.",better preservation
same,cell survival compared with control,"[1]; 5 mg/mL, after 30 hours (FIG. 47), especially at 3° C.",distinct improvement
same,survival,"[1]; 5 mg/mL, after 30 hours (FIG. 47), −3° C.",70%
same,cell fate on freezing,"[1]; 5 mg/mL, −20° C.",death of the cells after thawing
same,survival,"[1]; 10 mg/mL, 15° C., after four days, low-serum media",46%
same,cells preserved,"[1]; 10 mg/mL, 37° C., after four days, low-serum media",approximately 100%
same,cell morphology,"[1]; 10 mg/mL, Day 1 (FIG. 55)",preserve a spherical shape and maintain their integrity
same,cell survival rate versus concentration,"[1]; 3 and −3° C., 20 and 34 hours, up to 15 mg/mL",improves cell survival rate
same,protective effect on cells,"[1]; 3 and −3° C., concentrations up to 15 mg/mL, after 34 hours",~100%
same,number of living cells over incubation time,"[2]; 1 mg/mL, −3° C. (FIG. 40)",slow decrease over incubation time in the number of living cells
same,dependence of cell survival rate on concentration,"[2]; 0.1, 0.5 and 1 mg/mL",better results at 1 mg/mL than at 0.1 and 0.5 mg/mL
same,survival percentage over time,"[2]; main experiment, 1 mg/mL, 4° C., up to 45 hours",better survival percentage over the entire duration of the experiment
same,survival,"[2]; main experiment, 1 mg/mL, 22° C., after 45 hours",65%
same,"protective effect, monomer versus dimer","[2]; main experiment, 1 mg/mL, after 16 hours, 4° C.",gives the best results
same,cell survival compared with control,"[2]; main experiment, 1 mg/mL, up to 8 hours, 22, 4, −3 and −10° C.",no significant difference
same,survival compared with control,"[2]; main experiment, 1 mg/mL, −10° C.",slight improvement
same,survival percentage,"[2]; preliminary experiment, 2° C. as printed (method −2° C.), 20 hours, 0.1 mg/mL",identical to the control
same,platelet clustering,"[3]; 0° C., with or without glycoprotein",no clustering is seen
same,platelet clustering,"[3]; 4° C., irrespective of concentrations",almost no clustering is observed
same,platelet clustering compared with control,"[3]; 15° C., over time",a greater increase in clustering is observed in the control than in the samples containing the compound
same,time up to which samples do not show any platelet clusters,"[3]; 22° C., 1 mg/mL and 4 mg/mL",up to 7 days
same,platelet clustering,"[3]; 22° C., 4 mg/mL (most concentrated samples)",the least clustering
same,platelet clustering compared with control,"[3]; 22° C., 13, 17 and 21 days",true inhibition of platelet clustering
same,cell survival compared with negative control,[4]; 0.01 mg/mL,does not appear to improve cell survival
same,cell survival rate compared with negative control,"[4]; 0.10 mg/mL, five of six temperatures (4, 2, 0, −2, −4, −20° C.), 2, 8, 22 h",led to the best cell survival rates even if the improvement remained low
same,cell appearance and Trypan blue uptake after thawing,"[4]; −20° C., after two hours",maintained the appearance of spherical retractile cells and did not absorb Trypan blue
same,cells remaining after re-incubation,"[4]; −20° C., eight hours' incubation, both concentrations (0.01 and 0.1 mg/mL)",complete disappearance of all cells
same,% Haemolysis,[5]; [9],36%
same,% erythrocytes,[5]; [9],64%
same,% Ery,[5]; [10],100%
same,% Haemolysis,[5]; [10],0%
same,% Ery,"[5]; 0.1 mg/mL, 2 h, −15° C.",73%
same,% Haemolysis,"[5]; 0.1 mg/mL, 2 h, −15° C.",27%
same,Number of erythrocytes,"[5]; 0.1 mg/mL, 2 h, −15° C.",90
same,% Ery,[5]; [11],100%
same,% Haemolysis,[5]; [11],0%
same,% Ery,"[5]; 0.1 mg/mL, 4 h, −15° C.",0%
same,% Haemolysis,"[5]; 0.1 mg/mL, 4 h, −15° C.",100%
same,Number of erythrocytes,"[5]; 0.1 mg/mL, 4 h, −15° C.",0
same,% Ery,[5]; [12],100%
same,% Haemolysis,[5]; [12],0%
same,% Ery,"[5]; 0.1 mg/mL, 9 h, −15° C.",0%
same,% Haemolysis,"[5]; 0.1 mg/mL, 9 h, −15° C.",100%
same,Number of erythrocytes,"[5]; 0.1 mg/mL, 9 h, −15° C.",0
same,% Ery,[5]; [13],100%
same,% Haemolysis,[5]; [13],0%
same,% Haemolysis,[5]; [14],97%
same,% erythrocytes,[5]; [14],3%
same,% Ery,[5]; [15],100%
same,% Haemolysis,[5]; [15],0%
same,% Ery,"[5]; 1.0 mg/mL, 2 h, −15° C.",98%
same,% Haemolysis,"[5]; 1.0 mg/mL, 2 h, −15° C.",2%
same,Number of erythrocytes,"[5]; 1.0 mg/mL, 2 h, −15° C.",120
same,% Ery,[5]; [16],100%
same,% Haemolysis,[5]; [16],0%
same,% Ery,"[5]; 1.0 mg/mL, 4 h, −15° C.",100%
same,% Haemolysis,"[5]; 1.0 mg/mL, 4 h, −15° C.",0%
same,Number of erythrocytes,"[5]; 1.0 mg/mL, 4 h, −15° C.",133
same,% Ery,[5]; [17],100%
same,% Haemolysis,[5]; [17],0%
same,% Ery,"[5]; 1.0 mg/mL, 9 h, −15° C.",98%
same,% Haemolysis,"[5]; 1.0 mg/mL, 9 h, −15° C.",2%
same,Number of erythrocytes,"[5]; 1.0 mg/mL, 9 h, −15° C.",121
same,% Ery,[5]; [18],100%
same,% Haemolysis,[5]; [18],0%
same,protection of erythrocytes,"[5]; temperature below −15° C., 1.0 mg/mL",no protection is observed
same,haemolysis,"[5]; temperature range of 2 to −10° C., 0 to 24 hours, with or without product",no haemolysis
same,protection of erythrocytes,[5]; −15° C.,really protects the erythrocytes
same,protection of erythrocytes,"[5]; −15° C., 4 and 9 hours, 1.0 mg/mL",complete protection
same,protection of erythrocytes,"[5]; −15° C., after two hours, 0.1 mg/mL",partly protects the erythrocytes
same,protection of erythrocytes,"[5]; −15° C., after two hours, 1.0 mg/mL",completely
same,relation of % haemolysis to concentration,"[5]; −78° C. slow cooling, freezing point, after 40 minutes",direct correlation is observed between % haemolysis and concentrations of product 15
same,survival rate relative to control (control 19%),"[6]; 3° C. (FIG. 42 as printed), after 8 hours, monomer […], dimer 5 mg/mL",more than twice as high
same,cells preserved,"[6]; after 16 hours, FIGS. 41 and 42, monomer […], dimer 5 mg/mL",approximately 90%
same,myoblasts still living,"[6]; after 24 hours, FIGS. 41 and 42, monomer […], dimer 5 mg/mL",~65%
same,efficacy versus concentration,"[6]; −3° C. (FIG. 43), 1 mg/mL versus 2.5 / 5 mg/mL",greater efficacy at higher concentrations
same,survival,[7],approximately 80%
same,survival,[8]; 3° C.,100%
same,cells protected,[8]; 15° C.,100%
